From patent US9809587B2, “Pesticidally active heterocyclic derivatives with sulphur containing substituents” (Syngenta Participations AG, priority 2014, dated 2017)

Assays:
Format in all cases: in vivo
[1] = test system: Myzus persicae (Green Peach Aphid); assay: Myzus persicae (green peach aphid), sprayed sunflower leaf discs; settings: foliar, 144 h, application rate of 200 ppm, mixed ages on sunflower leaf discs, 6 days after infestation
Method: Example B4: Myzus persicae (Green Peach Aphid)
Sunflower leaf discs were placed on agar in a 24-well microtiter plate and sprayed with aqueous test solutions prepared from 10′000 ppm DMSO stock solutions. After drying, the leaf discs were infested with an aphid population of mixed ages. The samples were assessed for mortality 6 days after infestation.

[2] = test system: Bemisia tabaci (Cotton White Fly); assay: Bemisia tabaci (cotton white fly), sprayed cotton leaf discs; settings: foliar, 144 h, application rate of 200 ppm, adult white flies on cotton leaf discs, 6 days after incubation
Method: Example B1: Bemisia tabaci (Cotton White Fly)
Cotton leaf discs were placed on agar in 24-well microtiter plates and sprayed with aqueous test solutions prepared from 10′000 ppm DMSO stock solutions. After drying the leaf discs were infested with adult white flies. The samples were checked for mortality 6 days after incubation.

[3] = test system: Diabrotica balteata (Corn Root Worm); assay: Diabrotica balteata (corn root worm), sprayed maize sprouts; settings: 96 h, application rate of 200 ppm, L2 larvae on maize sprouts, 4 days after infestation
Method: Example B2: Diabrotica balteata (Corn Root Worm)
Maize sprouts, placed on an agar layer in 24-well microtiter plates were treated with aqueous test solutions prepared from 10′000 ppm DMSO stock solutions by spraying. After drying, the plates were infested with L2 larvae (6 to 10 per well). The samples were assessed for mortality and growth inhibition in comparison to untreated samples 4 days after infestation.

[4] = test system: Aedes aegypti (Yellow Fever Mosquito); assay: Activity against Aedes aegypti (yellow fever mosquito), dried deposits in tissue culture plates; settings: application rate of 200 ppm in ethanol, adult females, after 48 h
Method: Example B12: Activity Against Aedes aegypti (Yellow Fever Mosquito)
Test solutions, at an application rate of 200 ppm in ethanol, were applied to 12-well tissue culture plates. Once the deposits were dry, five, two to five days old adult female Aedes aegypti were added to each well, and sustained with a 10% sucrose solution in a cotton wool plug. Assessment of knockdown was made one hour after introduction, and mortality was assessed at 24 and 48 hours after introduction.
The following compounds gave at least 80% control of Aedes aegypti after 48 h: […]

[5] = test system: Euschistus heros (Neotropical Brown Stink Bug); assay: Euschistus heros (neotropical brown stink bug), sprayed soybean leaf; settings: 120 h, application rate of 200 ppm, N-2 nymphs on soybean leaf, 5 days after infestation
Method: Example B3: Euschistus heros (Neotropical Brown Stink Bug)
Soybean leaf on agar in 24-well microtiter plates were sprayed with aqueous test solutions prepared from 10′000 ppm DMSO stock solutions. After drying the leaf were infested with N-2 nymphs. The samples were assessed for mortality in comparison to untreated samples 5 days after infestation.

[6] = test system: Spodoptera littoralis (Egyqptian Cotton Leaf Worm); assay: Spodoptera littoralis (Egyptian cotton leaf worm), compound in agar taken up by lettuce roots; settings: 144 h, test rate of 12.5 ppm, uptake by lettuce roots from agar, 6 days after infestation, read-out: effect in at least one of the three categories (mortality, anti-feedancy, or growth inhibition)
Outline: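 Compound mixed into agar from a 10′000 ppm DMSO stock and taken up over 7 days by lettuce roots; cut leaves then infested with Spodoptera eggs. Mortality, anti-feedant effect and growth inhibition scored against untreated samples 6 days after infestation.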

[7] = test system: Spodoptera littoralis (Egyqptian Cotton Leaf Worm); assay: Spodoptera littoralis (Egyptian cotton leaf worm), sprayed cotton leaf discs; settings: foliar, 72 h, application rate of 200 ppm, L1 larvae on cotton leaf discs, 3 days after infestation
Outline: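 Cotton leaf discs on agar were sprayed with aqueous dilutions made from 10′000 ppm DMSO stocks, then infested after drying with five L1 larvae. Mortality, anti-feedant effect and growth inhibition were scored against untreated discs 3 days after infestation. Control means at least one of these exceeds the untreated sample.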

[8] = test system: Plutella xylostella (Diamond Back Moth); assay: Plutella xylostella (diamond back moth), treated artificial diet; settings: 120 h, application rate of 200 ppm, L2 larvae on artificial diet, 5 days after infestation, read-out: effect in at least one of the two categories (mortality or growth inhibition)
Outline: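 Artificial diet treated with aqueous dilutions of DMSO stocks (10′000 ppm stock), dried, then infested with 10-15 L2 larvae per well. Mortality and growth inhibition assessed versus untreated controls 5 days after infestation.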

[9] = test system: Frankliniella occidentalis (Western Flower Thrips); assay: Frankliniella occidentalis (western flower thrips), sprayed sunflower leaf discs; settings: foliar, 168 h, application rate of 200 ppm, mixed ages on sunflower leaf discs, 7 days after infestation
Method: Example B11: Frankliniella occidentalis (Western Flower Thrips)
Sunflower leaf discs were placed on agar in 24-well microtiter plates and sprayed with aqueous test solutions prepared from […] stock solutions. After drying the leaf discs were infested with a Frankliniella population of mixed ages. The samples were assessed for mortality 7 days after infestation.

[10] = test system: Myzus persicae (Green Peach Aphid); assay: Myzus persicae (green peach aphid), roots of pea seedlings in test solution; settings: 144 h, test rate of 24 ppm, roots of infested pea seedlings in test solution, 6 days
Method: Example B5: Myzus persicae (Green Peach Aphid)
Roots of pea seedlings infested with an aphid population of mixed ages were placed directly in the aqueous test solutions prepared from 10′000 DMSO stock solutions. The samples were assessed for mortality 6 days after placing seedlings in test solutions.

[11] = test system: Thrips tabaci (Onion Thrips); assay: Thrips tabaci (onion thrips), sprayed sunflower leaf discs; settings: foliar, 144 h, application rate of 200 ppm, mixed ages on sunflower leaf discs, 6 days after infestation
Method: Example B10: Thrips tabaci (Onion Thrips)
Sunflower leaf discs were placed on agar in 24-well microtiter plates and sprayed with aqueous test solutions prepared from 10′000 ppm DMSO stock solutions. After drying the leaf discs were infested with a thrips population of mixed ages. The samples were assessed for mortality 6 days after infestation.

CCS(=O)(=O)c1cc(-n2ccc(C(F)(F)F)n2)cnc1-c1nc2cc(C(F)(F)F)ncc2n1C [Compound P2, 2-[3-ethylsulfonyl-5-[3-(trifluoromethyl)pyrazol-1-yl]-2-pyridyl]-3-methyl-6-(trifluoromethyl)imidazo[4,5-c]pyridine]
≥ 80%: mortality at 200 ppm [1] | mortality at 200 ppm [2] | mortality at 200 ppm [3] | pest or weed control at 200 ppm [4] | mortality at 200 ppm [5] | percent control (mortality, anti-feedancy or growth inhibition) at 12.5 ppm [6] | percent control (mortality, anti-feedant effect or growth inhibition) at 200 ppm [7] | percent effect (mortality or growth inhibition) at 200 ppm [8]

CCS(=O)(=O)c1cc(-c2ccc(C(F)(F)F)cn2)cnc1-c1nc2cc(C(F)(F)F)ncc2n1C [Compound P19]
≥ 80%: mortality at 200 ppm [1] | mortality at 200 ppm [2] | mortality at 200 ppm [3] | pest or weed control at 200 ppm [4] | mortality at 200 ppm [5] | mortality at 200 ppm [9] | percent control (mortality, anti-feedancy or growth inhibition) at 12.5 ppm [6] | percent control (mortality, anti-feedant effect or growth inhibition) at 200 ppm [7] | percent effect (mortality or growth inhibition) at 200 ppm [8]

CCS(=O)(=O)c1cc(-c2ncccn2)ccc1-c1nc2cc(C(F)(F)F)ncc2n1C [Compound P89]
≥ 80%: mortality at 200 ppm [1] | mortality at 200 ppm [3] | pest or weed control at 200 ppm [4] | mortality at 200 ppm [5] | mortality at 200 ppm [9] | percent control (mortality, anti-feedancy or growth inhibition) at 12.5 ppm [6] | percent control (mortality, anti-feedant effect or growth inhibition) at 200 ppm [7] | percent effect (mortality or growth inhibition) at 200 ppm [8]

CCS(=O)(=O)c1cc(-c2ccccn2)cnc1-c1nc2cc(C(F)(F)F)ncc2n1C [Compound P18]
≥ 80%: mortality at 200 ppm [1] | mortality at 24 ppm [10] | pest or weed control at 200 ppm [4] | mortality at 200 ppm [5] | mortality at 200 ppm [9] | percent control (mortality, anti-feedancy or growth inhibition) at 12.5 ppm [6] | percent control (mortality, anti-feedant effect or growth inhibition) at 200 ppm [7] | percent effect (mortality or growth inhibition) at 200 ppm [8]

CCS(=O)(=O)c1cc(-c2cc(C#N)ccn2)cnc1-c1nc2cc(C(F)(F)F)ncc2n1C [Compound P93]
≥ 80%: mortality at 200 ppm [1] | mortality at 200 ppm [3] | pest or weed control at 200 ppm [4] | mortality at 200 ppm [5] | mortality at 200 ppm [9] | percent control (mortality, anti-feedancy or growth inhibition) at 12.5 ppm [6] | percent control (mortality, anti-feedant effect or growth inhibition) at 200 ppm [7] | percent effect (mortality or growth inhibition) at 200 ppm [8]

CCS(=O)(=O)c1cc(-n2ccc(C(F)(F)F)n2)ccc1-c1nc2cc(C(F)(F)F)ncc2n1C [Compound P90]
≥ 80%: mortality at 200 ppm [1] | mortality at 200 ppm [2] | mortality at 200 ppm [3] | pest or weed control at 200 ppm [4] | mortality at 200 ppm [5] | percent control (mortality, anti-feedancy or growth inhibition) at 12.5 ppm [6] | percent control (mortality, anti-feedant effect or growth inhibition) at 200 ppm [7] | percent effect (mortality or growth inhibition) at 200 ppm [8]

CCS(=O)(=O)c1cc(-n2cnc(Cl)n2)cnc1-c1nc2cc(C(F)(F)F)ncc2n1C [Compound P106]
≥ 80%: mortality at 200 ppm [1] | mortality at 200 ppm [11] | mortality at 24 ppm [10] | mortality at 200 ppm [2] | mortality at 200 ppm [3] | mortality at 200 ppm [5] | mortality at 200 ppm [9] | percent control (mortality, anti-feedant effect or growth inhibition) at 200 ppm [7] | percent effect (mortality or growth inhibition) at 200 ppm [8]

CCS(=O)(=O)c1cc(-c2ccnc(C(F)(F)F)n2)cnc1-c1nc2cc(C(F)(F)F)ncc2n1C [Compound P108]
≥ 80%: mortality at 200 ppm [1] | mortality at 200 ppm [2] | mortality at 200 ppm [3] | pest or weed control at 200 ppm [4] | mortality at 200 ppm [5] | percent control (mortality, anti-feedancy or growth inhibition) at 12.5 ppm [6] | percent control (mortality, anti-feedant effect or growth inhibition) at 200 ppm [7] | percent effect (mortality or growth inhibition) at 200 ppm [8]

CCS(=O)(=O)c1cc(-c2cc(Cl)ccn2)cnc1-c1nc2cc(C(F)(F)F)ncc2n1C [Compound P92]
≥ 80%: mortality at 200 ppm [1] | mortality at 200 ppm [3] | pest or weed control at 200 ppm [4] | mortality at 200 ppm [5] | mortality at 200 ppm [9] | percent control (mortality, anti-feedancy or growth inhibition) at 12.5 ppm [6] | percent control (mortality, anti-feedant effect or growth inhibition) at 200 ppm [7] | percent effect (mortality or growth inhibition) at 200 ppm [8]

CCS(=O)(=O)c1cc(-c2cncnc2)cnc1-c1nc2cc(C(F)(F)F)ncc2n1C [Compound P8]
≥ 80%: mortality at 200 ppm [1] | mortality at 200 ppm [11] | mortality at 24 ppm [10] | mortality at 200 ppm [2] | mortality at 200 ppm [5] | mortality at 200 ppm [9] | percent control (mortality, anti-feedant effect or growth inhibition) at 200 ppm [7] | percent effect (mortality or growth inhibition) at 200 ppm [8]

CCS(=O)(=O)c1cc(-c2ccc(C#N)cn2)cnc1-c1nc2cc(C(F)(F)F)ncc2n1C [Compound P91]
≥ 80%: mortality at 200 ppm [1] | mortality at 200 ppm [11] | mortality at 200 ppm [2] | mortality at 200 ppm [3] | mortality at 200 ppm [5] | mortality at 200 ppm [9] | percent control (mortality, anti-feedancy or growth inhibition) at 12.5 ppm [6] | percent control (mortality, anti-feedant effect or growth inhibition) at 200 ppm [7] | percent effect (mortality or growth inhibition) at 200 ppm [8]

CCS(=O)(=O)c1cc(-n2ccc(Cl)n2)cnc1-c1nc2cc(C(F)(F)F)ncc2n1C [Compound P88]
≥ 80%: mortality at 200 ppm [1] | mortality at 200 ppm [2] | mortality at 200 ppm [3] | pest or weed control at 200 ppm [4] | mortality at 200 ppm [5] | percent control (mortality, anti-feedancy or growth inhibition) at 12.5 ppm [6] | percent control (mortality, anti-feedant effect or growth inhibition) at 200 ppm [7] | percent effect (mortality or growth inhibition) at 200 ppm [8]
